Results as given in patent publication US12723063B2, “GIPR-agonist compounds” (Eli Lilly and Company, priority 2019, dated 2026).
*1 amine or outer side, *2 acyl side, *3 side chain or, on linkers, in order; H or OH if unused. Where a SMILES comes first, the peptide text is derived from it. Side-chain parts run from the residue outwards. [ ]: non-standard residue; d: D form. The star is where a group is joined. C20 diacid = O=C(O)CCCCCCCCCCCCCCCCCCC(=O)*; C18 diacid = O=C(O)CCCCCCCCCCCCCCCCC(=O)*; γGlu = O=C(O)[C@H](CCC(=O)[*:2])N[*:1]; αMeL = CC(C)C[C@](C)(N)C(=O)O; AEEA = NCCOCCOCC(=O)O; Aib = CC(C)(N)C(=O)O

Legend:
human GcgR = biological target: T1, human GcgR (Homo sapiens, UniProt P47871); assay: [125I]-Glucagon binding, SPA with WGA beads, 0.1% bacitracin; conditions: geometric mean, read-out: hGcgR Ki
T1 construct: expressed in transfected cells; crude membranes
Description: Stably transfected cell lines are prepared by subcloning receptor cDNA into a pcDNA3 expression plasmid and transfected into human embryonic kidney (HEK) 293 (hGcgR and hGLP-1R) or Chinese Hamster Ovary (CHO) (hGIPR) cells followed by selection with Geneticin (hGLP-1R and hGIPR) or hygromycin B (hGcgR).
Two methods are used for the preparation of crude cell membranes.
Method 1: Frozen cell pellets are lysed on ice in hypotonic buffer containing 50 mM Tris HCl, pH 7.5, and Roche Complete™ Protease Inhibitors with EDTA. The cell suspension is disrupted using a glass Potter-Elvehjem homogenizer fitted with a Teflon® pestle for 25 strokes. The homogenate is centrifuged at 4° C. at 1100× g for 10 minutes. The supernatant is collected and stored on ice while the pellets are resuspended in homogenization buffer and rehomogenized as described above. The homogenate is centrifuged at 1100× g for 10 minutes. The second supernatant is combined with the first supernatant and centrifuged at 35000× g for 1 hour at 4° C. The resulting membrane pellet is resuspended in homogenization buffer containing protease inhibitors at approximately 1 to 3 mg/mL, quick frozen in liquid nitrogen and stored as aliquots in a −80° C. freezer until use.
Method 2: Frozen cell pellets are lysed on ice in hypotonic buffer containing 50 mM Tris HCl, pH 7.5, 1 mM MgCl2, Roche Complete™ EDTA-free Protease Inhibitors and 25 units/mL DNAse I (Invitrogen). The cell suspension is disrupted using a glass Potter-Elvehjem homogenizer fitted with a Teflon® pestle for 20 to 25 strokes. The homogenate is centrifuged at 4° C. at 1800× g for 15 minutes. The supernatant is collected and stored on ice while the pellets are resuspended in homogenization buffer (without DNAse I) and rehomogenized as described above. The homogenate is centrifuged at 1800× g for 15 minutes. The second supernatant is combined with the first supernatant and centrifuged an additional time at 1800× g for 15 minutes. The overall supernatant is then centrifuged at 25000× g for 30 minutes at 4° C. The resulting membrane pellet is resuspended in homogenization buffer (without DNAse I) containing protease inhibitors at approximately 1 to 3 mg/mL and stored as aliquots in a −80° C. freezer until use.
The human Geg receptor binding assays are performed using a Scintillation Proximity Assay (SPA) format with wheat germ agglutinin (WGA) beads (Perkin Elmer). The binding buffer contains 25 mM 4-(2-hydroxyethyl)-1-piperazineethanesulfonic acid (HEPES), pH 7.4, 2.5 mM CaCl2), 1 mM MgCl2, 0.1% (w/v) bacitracin (Research Products), 0.003% (w/v) Polyoxyethylenesorbitan monolaurate (TWEEN®-20), and Roche Complete™ Protease Inhibitors without EDTA. Peptides and Gcg are thawed and 3-fold serially diluted in 100% DMSO (10 point concentration response curves). Next, 5 μL serially diluted compound or DMSO is transferred into Corning® 3632 clear bottom assay plates containing 45 μL assay binding buffer or unlabeled Gcg control (non-specific binding or NSB, at 1 μM final). […] Plates are sealed and mixed on a plate shaker (setting 6) for 1 minute and read with a PerkinElmer Trilux MicroBeta® scintillation counter after 12 hours of incubation/settling time at room temperature.
Data are analyzed using four-parameter (curve maximum, curve minimum, IC50, Hill slope) nonlinear regression routines (Genedata Screener, version 12.0.4, Genedata AG, Basal, Switzerland). […] Values for Ki are reported as the geometric mean, with error expressed as the standard error of the mean (SEM) and n is equal to the number of independent replicates (determined in assays performed on different days). […] SEM is only calculated when […] or greater. Means are expressed as geometric means with the standard error of the mean (SEM) and the number of replicates (n) indicated in parentheses.

[1] = biological target: T2, human glucagon receptor (GcgR) (Homo sapiens, UniProt P47871); assay: cAMP functional assay (HTRF) in HEK293 cells in presence of 0.1% casein; type: cell-based; conditions: HEK293 cells expressing human GcgR, geometric mean, read-out: hGcgR cAMP Rel EC50 nM (SEM, n)
T2 construct: expressed in transfected cells; host or cells: HEK293
Description: (§1) Each receptor over-expressing cell line (20 μl) is treated with the test peptide in DMEM (Gibco Cat #31053) supplemented with 0.1% Casein (Sigma Cat #C4765), 250 μM IBMX, 1× GlutaMAX™ (Gibco Cat #35050), and 20 mM HEPES (HyClone Cat #SH30237.01) in a 20 μl assay volume. After incubating for 60 minutes at room temperature, the resulting increase in intracellular CAMP is quantitatively determined using the CisBio CAMP Dynamic 2 HTRF Assay Kit (62AM4PEJ). The Lysis buffer containing cAMP-d2 conjugate (20 μl) and the antibody anti-cAMP-Eu3+-Cryptate (20 μl) are then added to determine the cAMP level. After incubating 60 minutes at room temperature, HTRF signal is detected with an Envision 2104 plate reader (PerkinElmer). Fluorescent emission at 620 nm and at 665 nm is measured and the ratio between 620 nm and at 665 nm is calculated and then are converted to nM cAMP per well using a cAMP standard curve. Dose response curves of compounds are plotted as the percentage of stimulation normalized to minimum (buffer only) and maximum (maximum concentration of each control ligand) values and analyzed using a four parameter non-linear regression fit with a variable slope (Genedata Screener 13). EC50 is the concentration of compound causing half-maximal simulation in a dose response curve. A relative EC50 value is derived by non-linear regression analysis using the percent maximal response vs, the concentration of peptide added, fitted to a four-parameter logistic equation.
(§2) Intracellular cAMP levels are determined by extrapolation using a standard curve. Dose response curves of compounds are plotted as the percentage of stimulation normalized to minimum (buffer only) and maximum (maximum concentration of each control ligand) values and analyzed using a four-parameter non-linear regression fit with a variable slope (Genedata Screener 13). EC50 is the concentration of compound causing half-maximal simulation in a dose response curve. Each relative EC50 value for the geometric mean calculation is determined from a curve fitting.
(§3) Concentration response curves of compounds are plotted as the percentage of stimulation normalized to minimum (buffer only) and maximum (maximum concentration of each control ligand) values and analyzed using a four-parameter non-linear regression fit with a variable slope (Genedata Screener 13). EC50 is the concentration of compound causing half-maximal simulation in a dose response curve. […] The standard error of the mean is reported:
(§4) [formula] • The log transform accounts for the EC50 values falling on a multiplicative, rather than an arithmetic scale.
(§5) For illustration, as shown by Example 1, the peptide is tested in 8 runs of the hGIPR CAMP assay. […] Accordingly, each Example will use the geometric mean of those values to normalize the Example assay runs.

[2] = biological target: T3, human GLP-1 receptor (GLP-1R) (Homo sapiens, UniProt P43220); assay: as above; type: cell-based; conditions: HEK293 cells expressing human GLP-1R, geometric mean, read-out: hGLP1R cAMP Rel EC50 nM (SEM, n)
T3 construct: expressed in transfected cells; host or cells: HEK293
Description: as §1, §2, §3, §4, §5

T2 sequence (P47871 26-477): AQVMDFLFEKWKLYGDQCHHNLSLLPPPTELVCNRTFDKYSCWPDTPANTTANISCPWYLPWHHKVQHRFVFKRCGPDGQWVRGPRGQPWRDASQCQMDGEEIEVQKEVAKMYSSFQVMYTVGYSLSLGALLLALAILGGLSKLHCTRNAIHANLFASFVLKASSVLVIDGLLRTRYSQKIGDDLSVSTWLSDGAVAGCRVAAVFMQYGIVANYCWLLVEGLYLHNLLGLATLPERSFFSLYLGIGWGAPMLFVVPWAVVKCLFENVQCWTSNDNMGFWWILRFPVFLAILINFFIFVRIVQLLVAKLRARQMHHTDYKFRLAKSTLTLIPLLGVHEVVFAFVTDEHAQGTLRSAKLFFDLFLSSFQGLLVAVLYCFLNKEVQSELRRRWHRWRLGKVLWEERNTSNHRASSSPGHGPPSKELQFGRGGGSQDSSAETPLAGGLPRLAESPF
T1 sequence (P47871 26-477): as above
T3 sequence (P43220 24-463): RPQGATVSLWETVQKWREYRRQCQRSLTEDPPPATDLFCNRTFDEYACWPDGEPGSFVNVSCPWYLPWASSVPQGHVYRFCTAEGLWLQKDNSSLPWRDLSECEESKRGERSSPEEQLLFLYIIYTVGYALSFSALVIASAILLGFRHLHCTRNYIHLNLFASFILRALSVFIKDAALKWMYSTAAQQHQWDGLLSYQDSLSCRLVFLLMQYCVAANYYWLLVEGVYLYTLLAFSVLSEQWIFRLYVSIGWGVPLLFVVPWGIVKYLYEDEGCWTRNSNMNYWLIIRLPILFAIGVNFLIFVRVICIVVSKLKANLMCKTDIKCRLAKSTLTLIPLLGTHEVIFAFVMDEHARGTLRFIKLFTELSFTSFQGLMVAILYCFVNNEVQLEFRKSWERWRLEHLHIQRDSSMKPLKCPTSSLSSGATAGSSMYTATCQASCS

With `CC[C@H](C)[C@H](NC(=O)[C@H](CO)NC(=O)[C@H](Cc1ccc(O)cc1)NC(=O)[C@H](CC(=O)O)NC(=O)[C@H](CO)NC(=O)[C@@H](NC(=O)[C@H](Cc1ccccc1)NC(=O)[C@@H](NC(=O)CNC(=O)[C@H](CCC(=O)O)NC(=O)C(C)(C)NC(=O)[C@@H](N)Cc1ccc(O)cc1)[C@@H](C)O)[C@@H](C)CC)C(=O)N[C@@H](CC(C)C)C(=O)N[C@@H](CC(C)C)C(=O)N[C@@H](CC(=O)O)C(=O)N[C@@H](CCCCN)C(=O)N[C@@H](CCCCNC(=O)COCCOCCNC(=O)COCCOCCNC(=O)CC[C@H](NC(=O)CCCCCCCCCCCCCCCCC(=O)O)C(=O)O)C(=O)N[C@@H](Cc1c[nH]cn1)C(=O)N[C@@H](CCC(N)=O)C(=O)NC(C)(C)C(=O)N[C@@H](CC(=O)O)C(=O)N[C@@H](Cc1ccccc1)C(=O)N[C@H](C(=O)N[C@@H](CC(N)=O)C(=O)N[C@@H](Cc1ccc(O)cc1)C(=O)N[C@@H](CC(C)C)C(=O)N[C@@H](CC(C)C)C(=O)N[C@@H](C)C(=O)N[C@@H](C)C(=O)NCC(=O)N1CCC[C@H]1C(=O)N[C@@H](CO)C(=O)N[C@@H](CO)C(=O)NCC(=O)N[C@@H](C)C(=O)N1CCC[C@H]1C(=O)N1CCC[C@H]1C(=O)N1CCC[C@H]1C(=O)N[C@@H](CO)C(N)=O)C(C)C` [Example 31] (H-Y[Aib]EGTFISDYSILLDKK([AEEA-AEEA-γGlu-C18 diacid])HQ[Aib]DFVNYLLAAGPSSGAPPPS-NH2) the Ki (human GcgR) was greater than 959 nM, the EC50 [1] was 1750 nM and the EC50 [2] was greater than 5000 nM.
Work on `CC[C@H](C)[C@H](NC(=O)[C@H](CO)NC(=O)[C@H](Cc1ccc(O)cc1)NC(=O)[C@H](CC(=O)O)NC(=O)[C@H](CO)NC(=O)[C@@H](NC(=O)[C@H](Cc1ccccc1)NC(=O)[C@@H](NC(=O)CNC(=O)[C@H](CCC(=O)O)NC(=O)[C@@H](C)NC(=O)[C@@H](N)Cc1ccc(O)cc1)[C@@H](C)O)[C@@H](C)CC)C(=O)N[C@@H](CC(C)C)C(=O)N[C@@H](CC(C)C)C(=O)N[C@@H](CC(=O)O)C(=O)N[C@@H](CCCCN)C(=O)N[C@@H](CCCCNC(=O)COCCOCCNC(=O)COCCOCCNC(=O)CC[C@H](NC(=O)CCCCCCCCCCCCCCCCC(=O)O)C(=O)O)C(=O)N[C@@H](C)C(=O)N[C@@H](CCC(N)=O)C(=O)NC(C)(C)C(=O)N[C@@H](CC(=O)O)C(=O)N[C@@H](Cc1ccccc1)C(=O)N[C@H](C(=O)N[C@@H](CC(N)=O)C(=O)N[C@@H](Cc1c[nH]c2ccccc12)C(=O)N[C@@H](CC(C)C)C(=O)N[C@@H](CC(C)C)C(=O)N[C@@H](C)C(=O)N[C@@H](CCC(N)=O)C(=O)NCC(=O)N1CCC[C@H]1C(=O)N[C@@H](CO)C(=O)N[C@@H](CO)C(=O)NCC(=O)N[C@@H](C)C(=O)N1CCC[C@H]1C(=O)N1CCC[C@H]1C(=O)N1CCC[C@H]1C(=O)N[C@@H](CO)C(N)=O)C(C)C` [Example 2] yielded a Ki (human GcgR) of 379 nM, an EC50 [1] of 608 nM and an EC50 [2] greater than 5000 nM.
In the case of `CC[C@H](C)[C@H](NC(=O)[C@H](CC(C)C)NC(=O)[C@@H](NC(=O)CNC(=O)[C@H](CCC(=O)O)NC(=O)C(C)(C)NC(=O)[C@@H](N)Cc1ccc(O)cc1)[C@@H](C)O)C(=O)N[C@@H](CO)C(=O)N[C@@H](CC(=O)O)C(=O)N[C@@H](Cc1ccc(O)cc1)C(=O)N[C@@H](CO)C(=O)N[C@H](C(=O)N[C@@](C)(CC(C)C)C(=O)N[C@@H](CC(C)C)C(=O)N[C@@H](CC(=O)O)C(=O)N[C@@H](CCCCN)C(=O)N[C@@H](CCCCNC(=O)COCCOCCNC(=O)COCCOCCNC(=O)CC[C@H](NC(=O)CCCCCCCCCCCCCCCCCCC(=O)O)C(=O)O)C(=O)N[C@@H](Cc1c[nH]cn1)C(=O)N[C@@H](CCC(N)=O)C(=O)NC(C)(C)C(=O)N[C@@H](CCC(=O)O)C(=O)N[C@@H](Cc1ccccc1)C(=O)N[C@H](C(=O)N[C@@H](CCC(=O)O)C(=O)N[C@@H](Cc1ccc(O)cc1)C(=O)N[C@@H](CC(C)C)C(=O)N[C@@H](CC(C)C)C(=O)N[C@@H](CCC(=O)O)C(=O)NCC(=O)NCC(=O)N1CCC[C@H]1C(=O)N[C@@H](CO)C(=O)N[C@@H](CO)C(=O)NCC(=O)N[C@@H](C)C(=O)N1CCC[C@H]1C(=O)N1CCC[C@H]1C(=O)N1CCC[C@H]1C(=O)N[C@@H](CO)C(N)=O)C(C)C)[C@@H](C)CC` [Example 73] (H-Y[Aib]EGTLISDYSI[αMeL]LDKK([AEEA-AEEA-γGlu-C20 diacid])HQ[Aib]EFVEYLLEGGPSSGAPPPS-NH2), the Ki (human GcgR) is reported as 292 nM, the EC50 [1] is reported as greater than 5000 nM and the EC50 [2] is reported as greater than 5000 nM.
